# Laboratory results as given in the NIST ThermoML archive (doi:10.1016/j.jct.2016.08.031).
# Numbers after ± are expanded uncertainties.
# Settings: Liquid, Closed cell (Static) method
SMILES,vapor or sublimation pressure (303.15 K) [kPa],vapor or sublimation pressure (313.15 K) [kPa],vapor or sublimation pressure (323.15 K) [kPa],vapor or sublimation pressure (333.15 K) [kPa],vapor or sublimation pressure (343.15 K) [kPa],vapor or sublimation pressure (353.15 K) [kPa]
CC(C)C [2-methylpropane],404.5 ± 1.2,530.9 ± 1.3,684.6 ± 1.4,869 ± 1.7,1087.4 ± 1.9,1343.4 ± 2.3
"F/C=C\C(F)(F)F [(Z)-1,3,3,3-tetrafluoro-1-propene]",210.6 ± 1.1,290.7 ± 1.1,391.8 ± 1.2,517.4 ± 1.3,671.3 ± 1.4,859.2 ± 1.6
